Test results from patent US6114390A, “Amino acid derivatives, pharmaceutical compositions containing these compounds and processes for preparing them” (Karl Thomae GmbH, priority 1997, dated 2000).

Key:
[1] = system: NPY; experiment: In vivo NPY-antagonism, NPY-induced blood pressure effects in pithed rats; conditions: Rattus norvegicus, iv, 1 min, NPY 10 μg/kg i.v., diastolic blood pressure, read-out: pIC50 (in vivo NPY-antagonism) (converted)
Method: After intubation of the trachea the animals are pithed by introducing a blunt needle through the eye into the spinal bone marrow channel. The animals are ventilated with oxygen-rich ambient air using a respiratory pump (20 strokes/minute). A cannula is inserted in the left carotid artery and the arterial blood pressure is measured using a pressure gauge (Braun Melsungen Combitrans) connected to a recording device. For injection purposes a catheter is placed in the left jugular vein through which heparin is administered (200 IU/kg, i.v.). After the blood pressure has been stabilised, the animals are given 2 bolus injections of NPY (10 μg/kg, i.v.) at intervals of 15 minutes. The average increase in diastolic blood pressure is taken as the reference value (=100%). The test substances are injected in increasing doses (4 to 6 doses) at intervals of 15 minutes. One minute after administration of the test substance, NPY is administered.
The antagonistic effect of the test substances is determined by plotting the percentage inhibition of the NPY-induced blood pressure effects against the logarithm of the concentration of active substance.

[2] = Food intake in food-deprived rats; type: in vivo, rat; conditions: 15 μg, bilaterally, PVN
Method: Food-deprivation experiments were conducted with male Chbb:Thom rats weighing between 300 and 350 g. The animals were individually housed for the duration of the study and allowed free access to normal food together with tap water. Food was removed from the animals for 24 hours starting at 8:00 a.m. At the end of the fasting period compound or vehicle was administered to the animals by infusion into the PVN. Food was returned to the animals and their food intake monitored at various time periods during the following 24 hour period. The food intake of animals treated with test compound was calculated as a percentage of the food intake of control animals (i.e., animals treated with vehicle).

[3] = target: T1, rat Y5 receptor (Rattus norvegicus, UniProt Q63634); experiment: Receptor binding, CHO cells transiently transfected with rat Y5 receptor; conditions: means ± S.E.M. of 3 to 5 experiments, read-out: Affinity IC50, ratY5/CHO
T1 construct: expressed in transfected cells; host or cells: CHO
T1 sequence (Q63634 1-445): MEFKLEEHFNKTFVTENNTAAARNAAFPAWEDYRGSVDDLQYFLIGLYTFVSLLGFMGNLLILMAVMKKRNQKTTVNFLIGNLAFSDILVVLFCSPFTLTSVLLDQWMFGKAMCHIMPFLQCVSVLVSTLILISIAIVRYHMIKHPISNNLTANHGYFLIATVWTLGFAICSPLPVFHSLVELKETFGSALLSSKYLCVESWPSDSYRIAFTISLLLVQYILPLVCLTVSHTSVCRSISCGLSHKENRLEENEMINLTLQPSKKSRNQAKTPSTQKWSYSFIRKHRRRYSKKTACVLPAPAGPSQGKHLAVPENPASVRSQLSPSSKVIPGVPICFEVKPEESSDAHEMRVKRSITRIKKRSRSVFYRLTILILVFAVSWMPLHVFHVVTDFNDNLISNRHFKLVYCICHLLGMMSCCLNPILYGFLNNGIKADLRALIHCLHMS
Method: CHO cells transiently transfected with human Y4 and rat Y5 receptor: Transfection was performed using the lipofectamine method according to the manufacturer's protocol (GIBCO BRL Eggenstein, Germany) using expression plasmids encoding the rat Y5 or human Y4 receptor, respectively. Receptor binding was performed as described for rat Y1 expressing HEK 293 cells.

[4] = target: T2, human Y2 receptor (Homo sapiens, UniProt P49146); experiment: Receptor binding, BHK cells stably expressing the human Y2 receptor; conditions: read-out: Affinity IC50, humanY2/BHK
T2 construct: expressed in transfected cells; host or cells: BHK
T2 sequence (P49146 1-381): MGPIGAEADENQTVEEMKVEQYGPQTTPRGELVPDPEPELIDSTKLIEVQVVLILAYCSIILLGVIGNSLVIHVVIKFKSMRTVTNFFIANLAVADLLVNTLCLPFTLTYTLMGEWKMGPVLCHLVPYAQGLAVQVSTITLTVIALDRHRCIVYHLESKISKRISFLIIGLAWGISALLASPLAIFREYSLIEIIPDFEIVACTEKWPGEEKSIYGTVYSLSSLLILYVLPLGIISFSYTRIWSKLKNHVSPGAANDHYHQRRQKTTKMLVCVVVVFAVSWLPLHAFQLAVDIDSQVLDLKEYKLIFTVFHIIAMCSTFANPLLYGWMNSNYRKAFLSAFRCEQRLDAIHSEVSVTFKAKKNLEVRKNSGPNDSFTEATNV
Method: BHK cells stably expressing the human Y1 receptor: Cells were grown in DMEM with 4.5 g/l glucose, 10% FCS, 1% PENStrep, 1 mg/ml G-418, 1 mg/ml hygromycin B. 96h before receptor binding assay 1mM IPTG was added in order to induce expression. Confluent cells were removed with 0.06% EDTA/PBS (1 min incubation) and resuspended in 15 ml incubation buffer (MEM/25 mM HEPES +1% BSA, […], 0.1% bacitracin, 3.75 mM CaCl2). After 10 min centrifugation at RT (150×g), the pellet was resuspended in 50 ml incubation buffer, respun and resuspended in 30 ml incubation buffer. After counting, the cells were diluted to a final concentration of 2.5×10^5 cells/ml. Two hundred microliters of this cell suspension was incubated 3 h at RT with 30 pM [^125 I]NPY and increasing concentrations of test compounds in a total volume of […]. The incubation was stopped by 10 min centrifugation, 3000×g at 4° C. The pellet was resuspended with 0.25 ml PBS recentrifuged and the pellet measured in a γ-counter.
BHK cells stably expressing the human Y2 receptor: Assay was performed essentially as described for human Y1 expressing BHK cells.

[5] = system: NPY induced food intake; experiment: Food intake in satiated rats after NPY application to the PVN; type: in vivo, rat; conditions: for % Inhibition of food intake: PVN, 2 h, 1 μg NPY
Method: For these determinations food intake was measured in normal satiated rats after application of NPY to the paraventricular nucleus (PVN) in the presence or absence of the test compound. […] The rats were individually housed in stainless steel cages where water and food were available ad libitum.
Rats under Pentobarbital anaesthesia were stereotactically implanted with a stainless steel double guide cannula targeted bilaterally at the PVNs. Stereotactic coordinates were: -1.8mm caudal, 0.5mm lateral to bregma and 7.0 mm below the skull surface. Injection cannulae extended the guide cannulae by 1 mm. Animals were allowed to recover from surgery for at least 10 days before being used in the experiments. Rats were handled and mock-injected during the […] recovery period to habituate them to the injection procedure.
Animals treated with both test compounds and NPY were treated first with the test compound. Then, 15 min. after PVN infusion of the test compound or vehicle (control) 1 μg of NPY was administered by PVN infusion.
Food intake was measured by placing preweighed pellets into the cages at the time of NPY injection. Pellets were removed from the cage at 2 h post NPY injection. The food intake of animals treated with test compound was calculated as a percentage of the food intake of control animals, i.e., animals treated with vehicle.

N=C(N)NCCC[C@@H](NC(=O)C(c1ccccc1)c1ccccc1)C(=O)NCc1ccc(CNC(N)=O)cc1 [Compound C]
ED50 [1]: 0.00776 µmol/kg
food intake in 24 hour food deprived rats (result in words) [2]: significant reduction in food intake
IC50 [3]: 21 µM
IC50 [4]: > 1 µM
NPY induced food intake (result in words) [5]: reduced
% Inhibition of food intake ([5]; 15 μg): 25.9%
% Inhibition of food intake ([5]; 30 μg): 52.8%
% Inhibition of food intake ([5]; 60 μg): 69.8%
